# Reference: publication PMC5770468, “Cardiac glycoside/aglycones inhibit HIV-1 gene expression by a mechanism requiring MEK1/2-ERK1/2 signaling” (Scientific Reports, 2018)
# How the values were obtained:
# [1] = system: nascent protein synthesis; format: cell-based, human; details: 220 nM
# Protocol: To monitor HIV-1 gene expression or replication, Gag release into cell culture supernatants were assayed by ELISA using a p24^CA antigen capture assay kit (AIDS & Cancer Virus Program, NCI-Frederick, Frederick, MD USA). Media harvested from HIV clinical isolates were diluted ~10 fold (or as necessary) prior to performing this assay. For analysis of HIV-1 and SR protein expression (and phosphorylation states with calf intestinal alkaline phosphatase treatments), cells were lysed and analyzed by western blot as previously outlined. Phosphatase inhibitors (e.g. 10 mM sodium fluoride, 2 mM sodium orthovanadate) were added to solutions requiring phospho protein analyses. […] Activation of MAPKs was determined by western blot quantitation and calculation of phospho/total protein levels. […] Stain-Free™ gels were casted and proteins were detected as described in 10% TGX-Stain-Free FastCast Acrylamide Kit from Bio-Rad (#161-0183). […] In representative gel/blot sets, samples were electrophoresed from the same experiment as controls, resolved simultaneously on identically cast gel(s), transferred to same PVDF (by either wet electrophoretic or by Bio-Rad Trans-Blot® Turbo Transfer System), and detected at same time. […] Cells were subsequently washed, whole cell lysates prepared, and proteins quantified by western blot using an anti-puromycin antibody (EMD Millipore, #anti-12D10) as described above. […]
# HeLa rtTA-HIV-ΔMls cells = experiment: In vitro therapeutic index (CC20/IC50) in HeLa rtTA-HIV-ΔMls cells; format: cell-based, human
# Source text: Without median toxic dose (TD50) and half-maximal effective concentration (EC50) data available to calculate TIs (in vivo) from HIV patients treated with CSs, we determined the following TIs for each cell type treated with a CS (summarized in Supplementary Table S1): in vitro TIs from HeLa rtTA-HIV-ΔMls cells using CC20/IC50 (instead of CC50/IC50), in vitro TIs from 24ST1NLESG cells using CC50/IC50, and ex vivo TIs from HIV-infected PBMCs using CC50/IC50 (at day 14 of culture approximated from available cell viability trends for CC50s of Supplementary Fig. S13 and inferred near maximal IC50s).
# Supplementary Table S1. Comparison of the in vitro (IVTI) and ex vivo therapeutic indices (EVTIs) of CSs and their impact on the expression of essential HIV-1 proteins.
# Notes: data for CC20, CC50, and IC50s for each drug/compound were estimated from dose response curves in Figures 1-2, Supplementary Table S1, Supplementary Figures S2, S5, and S13, and Wong et al.
# ">" means the estimate has not been accurately determined but is greater than the highest concentration […]
# "( )" indicates preliminary data that was not shown. aCC20 instead of CC50 was estimated from dose response curves and used for calculation of IVTIs. bCells were treated at ~IC90of a CS.
# (1 picture or pasted object on this page, not shown here)
SMILES,effect on nascent protein synthesis [1],better in vitro TI than digoxin (HeLa rtTA-HIV-ΔMls cells) [fold]
"COc1ccc(C[C@H]2NC[C@H](O)[C@H]2OC(C)=O)cc1 [anisomycin, Anisomycin]",little to no effect,–
C[C@@H]1O[C@@H](O[C@H]2C[C@@H](O)[C@]3(CO)[C@H]4[C@H](O)C[C@]5(C)[C@@H](C6=CC(=O)OC6)CC[C@]5(O)[C@@H]4CC[C@]3(O)C2)[C@H](O)[C@H](O)[C@H]1O [Ouabain],–,1.2
